In patent US4065616A, “Processes for production of a 1-N-(α-hydroxy-.PHI.-amino alkanoyl)-3-deoxy-5-O-pentafuranosyl neamine and new compounds produced by the same processes” (Zaidan Hojin Biseibutsu Kagaku Kenkyu Kai, priority 1975, dated 1977):
In brackets after ≈: the same amount, converted by molar mass. Where two headings read alike, the source gives them in different places.

Legend:
Experiment in all cases: M.I.C. by standard serial dilution method
Format in all cases: cell-based
Bacillus subtilis B-558 = conditions: B558, B. subtilis B-558, nutrient agar, 37° C, 18 hours, read-out: minimum inhibitory concentration (M.I.C.)
Procedure: (§1) These particular compounds, that is, 1-n-(α-hydroxy-ω-aminoalkanoyl)-3'-deoxy-5-O-pentofuranosylneamines according to the aforesaid general formula (I) have useful antibacterial activity against a wide variety of bacteria, including gram-negative bacteria and gram-positive bacteria. The minimum inhibitory concentration (M.I.C.) (mcg/ml) of these compounds against various organisms was determined by a standard serial dilution method at an incubation temperature of 37° C, the estimation being made after 18 hours incubation or each test organism, except that the incubation time was 48 hours for Mycobacterium smegmatis. The incubation medium used was nutrient agar.

[1] = test system: Pseudomonas aeruginosa 99; conditions: P. aeruginosa 99, nutrient agar, 37° C, 18 hours, read-out: minimum inhibitory concentration (M.I.C.)
Procedure: as §1

[2] = test system: Mycobacterium smegmatis ATCC 607; conditions: Mycolicibacterium smegmatis, ATCC607, nutrient agar, 37° C, 48 hours, read-out: minimum inhibitory concentration (M.I.C.)
Procedure: as §1

[3] = test system: Escherichia coli K-12 ML 1410 R81; conditions: 18 h, read-out: minimum inhibitory concentration (M.I.C.)
Procedure: as §1

Sarcina lutea PCl 1001 = conditions: Micrococcus luteus, PCL1001, nutrient agar, 37° C, 18 hours, read-out: minimum inhibitory concentration (M.I.C.)
Procedure: as §1

[4] = test system: Escherichia coli K-12 ML 1629; conditions: read-out: minimum inhibitory concentration (M.I.C.)
Procedure: as §1

[5] = test system: Pseudomonas aeruginosa No. 12; conditions: P. aeruginosa No. 12, nutrient agar, 37° C, 18 hours, read-out: minimum inhibitory concentration (M.I.C.)
Procedure: as §1

[6] = test system: Pseudomonas aeruginosa TI-13; conditions: TI13, P. aeruginosa TI-13, nutrient agar, 37° C, 18 hours, read-out: minimum inhibitory concentration (M.I.C.)
Procedure: as §1

Escherichia coli NIHJ = conditions: E. coli NIHJ, nutrient agar, 37° C, 18 hours, read-out: minimum inhibitory concentration (M.I.C.)
Procedure: as §1

[7] = test system: Escherichia coli K-12 W677; conditions: K12W677, E. coli K-12 W677, nutrient agar, 37° C, 18 hours, read-out: minimum inhibitory concentration (M.I.C.)
Procedure: as §1

[8] = test system: Escherichia coli K-12 LA 290 R55; conditions: K12LA290R55, 18 h, read-out: minimum inhibitory concentration (M.I.C.)
Procedure: as §1

[9] = test system: Staphylococcus aureus FDA 209P; conditions: FDA209P, read-out: minimum inhibitory concentration (M.I.C.)
Procedure: as §1

[10] = test system: Klebsiella pneumoniae Type 22, No. 3038; conditions: read-out: minimum inhibitory concentration (M.I.C.)
Procedure: as §1

[11] = test system: Escherichia coli K-12 JR66/W677; conditions: K12JR66/W677, 18 h, read-out: minimum inhibitory concentration (M.I.C.)
Procedure: as §1

[12] = test system: Klebsiella pneumoniae PCI 602; conditions: read-out: minimum inhibitory concentration (M.I.C.)
Procedure: as §1

[13] = test system: Escherichia coli K-12 LA 290 R56; conditions: K12LA290R56, 18 h, read-out: minimum inhibitory concentration (M.I.C.)
Procedure: as §1

Proteus rettgeri GN 311 = conditions: Providencia rettgeri, GN311, nutrient agar, 37° C, 18 hours, read-out: minimum inhibitory concentration (M.I.C.)
Procedure: as §1

[14] = test system: Escherichia coli K-12 ML 1630; conditions: K12ML1630, E. coli K-12 ML 1630, nutrient agar, 37° C, 18 hours, read-out: minimum inhibitory concentration (M.I.C.)
Procedure: as §1

Salmonella typhosa T-63 = conditions: Salmonella enterica, 18 h, read-out: minimum inhibitory concentration (M.I.C.)
Procedure: as §1

[15] = test system: Escherichia coli K-12 LA 290 R64; conditions: K12LA290R64, 18 h, read-out: minimum inhibitory concentration (M.I.C.)
Procedure: as §1

Escherichia coli K-12 = conditions: K12, E. coli K-12, nutrient agar, 37° C, 18 hours, read-out: minimum inhibitory concentration (M.I.C.)
Procedure: as §1

[16] = test system: Escherichia coli K-12 ML 1410; conditions: K12ML1410, E. coli K-12 ML 1410, nutrient agar, 37° C, 18 hours, read-out: minimum inhibitory concentration (M.I.C.)
Procedure: as §1

[17] = test system: Pseudomonas aeruginosa A3; conditions: P. aeruginosa A3, nutrient agar, 37° C, 18 hours, read-out: minimum inhibitory concentration (M.I.C.)
Procedure: as §1

Proteus rettgeri GN 466 = conditions: Providencia rettgeri, read-out: minimum inhibitory concentration (M.I.C.)
Procedure: as §1

[18] = test system: Pseudomonas aeruginosa GN 315; conditions: GN315, P. aeruginosa GN 315, nutrient agar, 37° C, 18 hours, read-out: minimum inhibitory concentration (M.I.C.)
Procedure: as §1

| SMILES | MIC (Bacillus subtilis B-558) [µg/mL] | MIC [1] [µg/mL] | MIC [2] [µg/mL] | MIC [3] [µg/mL] | MIC (Sarcina lutea PCl 1001) [µg/mL] | MIC [5] [µg/mL] | MIC [6] [µg/mL] | MIC (Escherichia coli NIHJ) [µg/mL] | MIC [7] [µg/mL] | MIC [8] [µg/mL] | MIC [11] [µg/mL] | MIC [13] [µg/mL] | MIC (Proteus rettgeri GN 311) [µg/mL] | MIC [14] [µg/mL] | MIC (Salmonella typhosa T-63) [µg/mL] | MIC [15] [µg/mL] | MIC (Escherichia coli K-12) [µg/mL] | MIC [16] [µg/mL] | MIC [17] [µg/mL] | MIC [18] [µg/mL] | further results |
| --- | --- | --- | --- | --- | --- | --- | --- | --- | --- | --- | --- | --- | --- | --- | --- | --- | --- | --- | --- | --- | --- |
| NC[C@H](O)C(=O)N[C@@H]1C[C@H](N)[C@@H](O[C@H]2O[C@H](CN)[C@@H](O)C[C@H]2N)[C@H](O[C@@H]2O[C@H](CO)[C@H](O)[C@H]2O)[C@H]1O [Compound No. 2, 1-n-((S)-3-amino-2-hydroxypropionyl)-3'-deoxy-5-O-β-D-xylofuranosylneamine] | 0.78 (≈ 1.48 µM) | 12.5 (≈ 23.8 µM) | 0.39 (≈ 0.742 µM) | 3.12 (≈ 5.94 µM) | 25 (≈ 47.6 µM) | 12.5 (≈ 23.8 µM) | 25 (≈ 47.6 µM) | 0.78 (≈ 1.48 µM) | 0.78 (≈ 1.48 µM) | 0.78 (≈ 1.48 µM) | 0.78 (≈ 1.48 µM) | 0.78 (≈ 1.48 µM) | 6.25 (≈ 11.9 µM) | 1.56 (≈ 2.97 µM) | 0.78 (≈ 1.48 µM) | 0.78 (≈ 1.48 µM) | 0.39 (≈ 0.742 µM) | 3.12 (≈ 5.94 µM) | 3.12 (≈ 5.94 µM) | > 100 | MIC ([4]; K12ML1629, 18 h): 1.56 µg/mL (≈ 2.97 µM); MIC ([9]; 18 h): 1.56 µg/mL (≈ 2.97 µM); MIC ([10]; 18 h): 1.56 µg/mL (≈ 2.97 µM); MIC ([12]; PCI602, 18 h): 1.56 µg/mL (≈ 2.97 µM); MIC (Proteus rettgeri GN 466; GN466, 18 h): 1.56 µg/mL (≈ 2.97 µM) |
| NCC[C@H](O)C(=O)N[C@@H]1C[C@H](N)[C@@H](O[C@H]2O[C@H](CN)[C@@H](O)C[C@H]2N)[C@H](O[C@@H]2O[C@@H](CO)[C@H](O)[C@H]2O)[C@H]1O [Compound No. 3, 1-N-((S)-4-amino-2-hydroxybutyryl)-3'-deoxy-5-O-α-L-arabinofuranosylneamine] | 0.2 (≈ 0.371 µM) | 6.25 (≈ 11.6 µM) | 0.2 (≈ 0.371 µM) | 1.56 (≈ 2.89 µM) | 25 (≈ 46.3 µM) | 12.5 (≈ 23.2 µM) | 25 (≈ 46.3 µM) | 0.78 (≈ 1.45 µM) | 0.39 (≈ 0.723 µM) | 1.56 (≈ 2.89 µM) | 1.56 (≈ 2.89 µM) | 0.39 (≈ 0.723 µM) | 3.12 (≈ 5.78 µM) | 0.78 (≈ 1.45 µM) | 0.78 (≈ 1.45 µM) | 0.2 (≈ 0.371 µM) | 0.39 (≈ 0.723 µM) | 0.78 (≈ 1.45 µM) | 0.78 (≈ 1.45 µM) | > 100 | MIC ([4]; K12ML1629, E. coli K-12 ML 1629, nutrient agar, 37° C, 18 hours): 0.39 µg/mL (≈ 0.723 µM); MIC ([9]; S. aureus FDA 209P, nutrient agar, 37° C, 18 hours): 0.39 µg/mL (≈ 0.723 µM); MIC ([10]; K. pneumoniae Type 22, No. 3038, nutrient agar, 37° C, 18 hours): 0.39 µg/mL (≈ 0.723 µM); MIC ([12]; PCI602, K. pneumoniae PCI 602, nutrient agar, 37° C, 18 hours): 0.39 µg/mL (≈ 0.723 µM); MIC (Proteus rettgeri GN 466; GN466, Proteus rettgeri GN 466, nutrient agar, 37° C, 18 hours): 0.78 µg/mL (≈ 1.45 µM) |
